Measured values reported in PMC9804910 (Chembiochem, 2022).

Experiments:
HeLa cells = test system: HeLa cells; design: method as in PMID 32065454; details: cited from earlier work
CT‐26 cells [1] = assay: Mito stress test (Seahorse, oxygen consumption rate); assay type: cell-based, mouse; details: CT‐26, 24 h treatment; 1 (1 μM), 3 (5 μM), 4 (0.5 μM), 5 (10 μM), 6 (25 μM), 7 (10 μM), 8 (25 μM)
Description: To further study the mechanism of action of complexes 3–8, their influence on the cellular metabolism of CT‐26 cells was investigated. Figure 6 represents the Mito stress test profile after 24 h of treatment; the oxygen consumption rate (OCR) changes with specific electron‐transport chain inhibitors. Oligomycin (inhibitor of ATP synthase (complex V)), FCCP (uncoupling agent), antimycin‐A (complex III inhibitors), and rotenone (complex I inhibitor) were employed in this study. In general, both cationic compounds 4 and 7 affected the mitochondrial processes. It is evident from the low basal respiration and the inhibition of ATP production compared to untreated cells (orange dots) that the mitochondrial membrane of the cells treated with such complexes lost the capacity to restore the proton balance when treated with an uncoupling agent (FCCP). The maximal respiration (the OCR value when the mitochondrial membrane is uncoupled) and spare respiratory capacity (difference in the OCR values between maximal respiration and basal respiration) of the cells were reduced compared to those of untreated cells (Figure 6). […] The results with complex 4 are consistent with its measured large mitochondrial uptake (see above).
Metabolic studies: mito stress test: CT‐26 cells were seeded in Seahorse XFe 96‐ well plates at a density of 20 000 cells/well in 80 μL of the medium. After 24 h, the medium was replaced with fresh medium, and either complex 1 (1 μM), 3 (5 μM), 4 (0.5 μM), 5 (10 μM), 6 (25 μM), 7 (10 μM), or 8 (25 μM) was added. After 24 h of incubation, the regular medium was removed, and cells were washed three times using Seahorse base media and incubated in a non‐CO2 incubator at 37 °C for 1 h. A Mito stress assay was run using 1 μM oligomycin, 1 μM FCCP, and a mixture of 1 μM antimycin‐A/1 μM rotenone in ports A−C, respectively, using a Seahorse XFe96 extracellular flux analyser.

[2] = test system: PC‐3 (human prostate adenocarcinoma); assay: Fluorometric cell viability assay (Resazurin), 2D monolayer; assay type: cell-based; details: PC‐3, 48 h
Description: (§1) The first step toward the biological investigation of complexes 3–8 was the evaluation of cell viability in monolayer cultures of CT‐26 (mouse colon adenocarcinoma), PC‐3 (human prostate adenocarcinoma), and RPE‐1 (human normal retina pigmented epithelial) cell lines using a fluorometric cell viability assay with the Resazurin reagent. Cisplatin and 1 were tested in the same cell lines as positive and additional controls.
(§2) Cell cultures: The CT‐26 cell line was cultured in DMEM media (Gibco) supplemented with 10 % foetal calf serum (Gibco) and 1 % penicillin‐streptomycin antibiotic (Gibco). The PC‐3 cell line was cultured in F12‐K media (Gibco) supplemented with 10 % foetal calf serum (Gibco) and 1 % Penicillin‐Streptomycin antibiotic (Gibco). The RPE‐1 cell line was cultured in DMEM/F‐12 media (Gibco) supplemented with 10 % foetal calf serum and 1 % Penicillin‐Streptomycin antibiotic (Gibco). Cell lines were maintained in a humidified atmosphere at 37 °C with 5 % CO2.
(§3) Cytotoxicity assay using a 2D cellular model: The cytotoxicity of the tested Ru complexes was assessed by a fluorometric cell viability assay using Resazurin (Acros Organics). Briefly, cells were seeded in triplicate in 96‐well plates at a 4×10^3 cells/ well density in 100 μL. After 24 h, cells were treated with increasing concentrations of the ruthenium complexes and controls. Dilutions for complexes 3–8 were prepared as follows: 10 mM stock solution in DMSO was diluted to 100–0.01 μM with medium. After 48 h of incubation, the medium was removed, and 100 μL of complete medium containing resazurin (0.2 mg/mL final concentration) was added. After 4 h of incubation at 37 °C, the fluorescence signal of the resorufin product was read (ex 540 nm, em 590 nm) in an Infinite 200 PRO Microplate Reader from TECAN. IC50 values were then calculated using GraphPad Prism software.

[3] = test system: CT‐26 (mouse colon adenocarcinoma); assay: as above; assay type: cell-based; details: for IC50: CT‐26, 48 h
Description: as §1, §2, §3

[4] = test system: RPE‐1 (human normal retina pigmented epithelial); assay: as above; assay type: cell-based; details: RPE‐1, 48 h
Description: as §1, §2, §3

CT‐26 cells [5] = assay: Cellular fractionation (mitochondria and nucleus isolation, Ru content); assay type: cell-based, mouse; details: CT‐26, 5 μM, 4 h
Description: Additionally, we choose the best candidate from the cytotoxicity experiments, namely [Ru(DIP)2(η^2‐acac)]Cl (4), to explore its cellular localisation. For this, we performed cellular fractionation experiments to ascertain in which organelle it localizes.
Sample preparation for cellular fractionation: CT‐26 cells were seeded in three 15 cm^2 cell culture dishes and cells were 90 % confluent on the day of treatment. On the day of treatment, cells were incubated with the target complex at a concentration of 5 μM for 4 h, then the medium was removed and the cells were washed, collected, and counted. After re‐suspension in cold PBS, the organelles were isolated by using different protocols (one cell culture dish per isolation was used).
Mitochondria and nucleus isolation : To isolate mitochondria, a Mitochondria Isolation Kit (Cat. Nr: MITOISO2, SigmaAldrich) and Nucleus Isolation Kit (NUC‐101) were used according to the manufacturer procedure for the isolation of mitochondria via homogenization method.

CT‐26 cells [6] = assay: ICP‐MS cellular uptake; assay type: cell-based, mouse
Description: The cellular uptake of the complexes 3–8 was then investigated in CT‐26 cells by determining the amount of Ru inside the cells using inductively coupled plasma mass spectrometry (ICP‐MS) after 2 h of incubation at 5 μM. […] This is most probably due to the higher lipophilicity of the DIP ligand compared to phen. […] In contrast, the neutral complexes with the DIP ligand (3 and 5) present a lower uptake (ca. 50 %) compared the phen analogues 6 and 8. This observation is rather counter‐intuitive since compounds 3 and 5 have a higher cytotoxicity than 6 and 8. The lower uptake of the DIP complexes 3 and 5 might be due to the lower solubility of these complexes in the cell culture medium. However, taken together, the uptake and cytotoxicity data imply that 3 and 5 have a higher specific cytotoxic activity compared to the phen analogues 6 and 8, reasonably attributable to their higher lipophilicity.
ICP‐MS cellular uptake studies: CT‐26 cells were seeded at a density of 1×10^6. The next day, cells were treated with 5 μM of the corresponding complex diluted in the cell culture medium from a 10 mM stock solution in DMSO. After 2 h, cells were collected, counted, and stored at −80 °C. ICP‐MS samples were prepared as follows: samples were digested using 70 % nitric acid (1 mL, 60 °C, overnight) and then further diluted 1 : 100 (1 % HCl solution in MQ water) analysed using ICP‐MS. All ICP‐MS measurements were performed on an Agilent 7900 Quadrupole ICP‐MS located at the Institut de Physique du Globe de Paris (France). The monitored isotopes are 99 and 101 Ru. Daily, before the analytical sequence, an indium internal‐standard was injected after inline mixing with the samples to correct for signal drift and matrix effects. A set of calibration standards was analysed to confirm and model (through simple linear regression) the linear relationship between signal and concentration. The model was then used to convert measured sample counts to concentrations. Reported uncertainties were calculated using error propagation equations and considering the combination of standard deviation on replicated consecutive signal acquisitions (n=3), internal‐standard ratio and blank subtraction. The non‐linear term (internal‐standard ratio) was linearized using a first‐order Taylor series expansion to simplify error propagation. The amount of metal detected in the cell samples was transformed from ppb to μg of metal. Data were subsequently normalized to the number of cells and expressed as μmol of metal/number of cells.

[7] = Stability in human plasma (UV-Vis and HPLC); assay type: in vitro ADME; details: 37 °C
Description: The biological activity of anticancer drugs candidates is strongly influenced by their stability in DMSO, medium cell culture, and human plasma. For this reason, we performed stability studies of complexes 3–8 at 37 °C in DMSO and DMEM medium (Gibco) (Supporting Information Figures S1 ‐ S2). […] Finally, the stability of the compounds was investigated by incubating them in human plasma at 37 °C for 48 h, followed by UV‐Vis and HPLC analysis. […] After 48 h, only 15 % of the complex was still intact, as observed by HPLC (Supporting Information Figure S5).
Stock solutions of each complex (2 mM) and caffeine (2 mM) were prepared in dimethyl sulfoxide. 50 μL of both stock solutions (complex and caffeine) were added to 400 μL of human plasma, achieving 500 μL. The resulting solutions were incubated upon continuous gentle shaking (ca. 300 rpm) for 48 h at 37 °C. After this time, the incubation was ended by adding 1 mL of methanol. The mixture was centrifuged for 45 min at 3000 rpm and 4 °C. The solution was filtered through a 0.2 μm membrane filter and submitted to HPLC analysis, that were carried out on a Jupiter Proteo column (250×4.6 mm, 4 μm, flow rate: 1 mL/min). The solvents (HPLC grade) were Millipore water (solvent A) and acetonitrile (solvent B). […] The flow rate was 1 mL min^−1, and the chromatogram was detected at 215 nm.

different tumour cells = test system: different tumour cells; design: method as in PMID 17199281; details: cited from earlier work
[8] = test system: several cancer cell lines; design: method as in PMID 32319768; details: cited from earlier work
cancer cells = test system: cancer cells; design: method as in PMID 25313823; details: 2 h incubation; cited from earlier work

In the case of Cc1occc(=O)c1[O-].F[P-](F)(F)(F)(F)F.[Ru+2].c1ccc(-c2ccnc3c2ccc2c(-c4ccccc4)ccnc23)cc1.c1ccc(-c2ccnc3c2ccc2c(-c4ccccc4)ccnc23)cc1 [Compound 1, [Ru(DIP)2(mlt)](PF6), reference compound], the subcellular accumulation (HeLa cells) is listed as “accumulate more in the nucleus than in mitochondria”, the “effect on mitochondrial respiration (basal respiration, OCR profile) vs untreated cells” value (“effect … vs untreated cells” for short) (CT‐26 cells [1]) is listed as “severe impairment of mitochondrial respiration” and the IC50 [2] is listed as 1.84 ± 0.23 µM. It also gave an IC50 [3] of 0.37 ± 0.12 µM and an IC50 [4] of 0.67 ± 0.14 µM.

With CC(=O)C=C(C)[O-].[Cl-].[Ru+2].c1ccc(-c2ccnc3c2ccc2c(-c4ccccc4)ccnc23)cc1.c1ccc(-c2ccnc3c2ccc2c(-c4ccccc4)ccnc23)cc1 [Compound 4, [Ru(DIP)2(η^2‐acac)]Cl] the “fraction detected in the nucleus (of the total amount of Ru)” value (CT‐26 cells [5]) was “ca. 10%”, the “localization in mitochondria (of the total amount of Ru)” value (CT‐26 cells [5]) was “ca. 50%” and the “effect … vs untreated cells” value (CT‐26 cells [1]) was “severe impairment of mitochondrial respiration”. For the same compound, the IC50 [2] was 0.62 ± 0.19 µM, the IC50 [3] was 0.41 ± 0.1 µM and the “selectivity towards CT‐26 and PC‐3 cancer cell lines compared to healthy cell line RPE‐1” value ([3]; from IC50 values, 48 h) was “no selectivity”. The IC50 [4] was 0.5 ± 0.12 µM, the “cellular uptake compared to neutral DIP complexes 3 and 5” value (CT‐26 cells [6]; CT‐26) was “at least three times larger” and the “cellular uptake compared to phen counterpart 7” value (CT‐26 cells [6]; CT‐26, 5 μM, 2 h) was “almost three times larger”. For the same compound, the “cellular uptake compared to reference complex 1” value (CT‐26 cells [6]; CT‐26, 5 μM, 2 h) was “ca. three times larger” and the “cellular uptake (amount of Ru inside the cells)” value (CT‐26 cells [6]; CT‐26, 5 μM, 2 h incubation) was “most significant uptake”.

For O=C([O-])C(=O)[O-].[Ru+2].c1ccc(-c2ccnc3c2ccc2c(-c4ccccc4)ccnc23)cc1.c1ccc(-c2ccnc3c2ccc2c(-c4ccccc4)ccnc23)cc1 [Compound 5, [Ru(DIP)2(η^2‐ox)]], the IC50 [2] was 21.1 ± 2.29 µM, the IC50 [3] was 24.1 ± 2.5 µM and the IC50 [4] was 14.5 ± 3 µM. For the same compound, the “lower uptake compared to the phen analogues 6 and 8” value (CT‐26 cells [6]; CT‐26, 5 μM, 2 h) was “ca. 50%”.

In the case of O=C([O-])CC(=O)[O-].[Ru+2].c1cnc2c(c1)ccc1cccnc12.c1cnc2c(c1)ccc1cccnc12 [Compound 6, [Ru(phen)2(η^2‐mal)]], the “stability in human plasma (UV‐vis spectra and HPLC chromatograms before and after incubation)” value ([7]; 48 h) is reported as “chemical transformation”, the “complex still intact (HPLC)” value ([7]; after 48 h) is reported as 15% and the IC50 [2] is reported as over 100 µM. It also gave an IC50 [3] of over 100 µM and an IC50 [4] of over 100 µM.

For CC(=O)C=C(C)[O-].[Cl-].[Ru+2].c1cnc2c(c1)ccc1cccnc12.c1cnc2c(c1)ccc1cccnc12 [Compound 7, [Ru(phen)2(η^2‐acac)]Cl], the “effect … vs untreated cells” value (CT‐26 cells [1]) was “severe impairment of mitochondrial respiration”, the IC50 [2] was over 100 µM and the IC50 [3] was 10.3 ± 0.74 µM. The IC50 [4] was over 100 µM.

Compound O=C([O-])C(=O)[O-].[Ru+2].c1cnc2c(c1)ccc1cccnc12.c1cnc2c(c1)ccc1cccnc12 [Compound 8, [Ru(phen)2(η^2‐ox)]] has an IC50 [2] of over 100 µM, an IC50 [3] of over 100 µM and an IC50 [4] of over 100 µM.

In the case of [Ru+2].c1ccc(-c2ccnc3c2ccc2c(-c4ccccc4)ccnc23)cc1.c1ccc(-c2ccnc3c2ccc2c(-c4ccccc4)ccnc23)cc1.c1ccc2nc3c4cccnc4c4ncccc4c3nc2c1 [[Ru(DIP)2(dppz)]^2+], the “inhibition against tumour cells” value (different tumour cells) is listed as “low inhibition”.

For N.N.[Cl][Pt][Cl] [cisplatin, reference compound], the IC50 [2] was 10.3 ± 1.14 µM, the IC50 [3] was 1.94 ± 0.72 µM and the IC50 [4] was 20.1 ± 3.91 µM.

For [Ru(DIP)2(sq)](PF6) [Compound 2], the cytotoxicity [8] is listed as “nanomolar concentration range”.

Work on [Ru(DIP)2(η^2‐mal)] [Compound 3] yielded an IC50 [2] of 4.92 ± 0.33 µM, an IC50 [3] of 5.63 ± 0.34 µM and an IC50 [4] of 5 ± 0.7 µM. For the same compound, the “lower uptake compared to the phen analogues 6 and 8” value (CT‐26 cells [6]; CT‐26, 5 μM, 2 h) was “ca. 50%”.

For [Ru(bpy)(phpy)(dppz)]^+, the “complex accumulated in nuclei” value (cancer cells) is listed as about 90%.
